Reference: patent US7507749B2, “Antitumor agents” (priority 2001, dated 2009)
Like-named read-outs stand apart in the source and are kept apart here.

Columns and labels:
[1] = system: mammary adenocarcinoma-16/C; test: Test F: R-enantiomers of 22b and 22c against early staged mammary adenocarcinoma-16/C; format: in vivo, C3H female mice
Description: C3H female mice were obtained from N.C.I. (D.O.B. was […]; D.O.A. was Jan. 27, 2001). The mice weighed an average of 19.2 gm. Mice were implanted SC with mammary adenocarcinoma-16/C passage-170, a fast growing, highly invasive, highly metastatic tumor (D.O.T. was Mar. 8, 2001; Td was 1.2 days).
The R-enantiomers of both Compound 22c and Compound 22b were each suspended in 3% ethanol, 1% POE-80, 0.5% sodium bicarbonate (by volume) to effect solution, P.B.S. was then added and the pH adjusted to 7 with HCl. Adriamycin (ADRIA; lot number 20338c) was suspended in dH2O to effect solution and the pH was adjusted to 6.0. Mice were administered 0.2 ml per IV injection.

[2] = system: pancreatic ductal adenocarcinoma-03; format: in vivo
Description: BDF1 female mice were obtained from N.C.I., CRL-Ral (D.O.B. was Feb. 26, 2001; D.O.A. was Mar. 10, 2001). The mice weighed an average of 22.5 gm. Mice were implanted SC with pancreatic ductal adenocarcinoma-03 passage 143. (D.O.T. was May 29, 2001; Td was 2.3 days).
The R-enantiomer of compound 22c was suspended in 3% ethanol, 1% POE-80, 0.25% sodium bicarbonate (by volume) to effect solution. dH2O was then added, and the pH adjusted to 7 with HCl. […] The R-enantiomer of compound 22b was suspended in 3% ethanol, 1% POE-80, 0.5% sodium-bicarbonate (by volume) to effect solution. Then, dH2O was added, and the pH adjusted to 7.5 with HCl. […] Adriamycin (source ADRIA; lot 2033BC) was suspended in dH2O to effect solution, and the pH was 6.0.
Treatment began six days following implant, at which time the tumors were palpable size (126 mg median). The duration of treatment was prolonged (18 days) in order to obtain a clear separation in efficacy between the compounds.

colon carcinoma 26 = conditions: Cg 3; IV 50 mg/kg/inj days 6,8,10,13,15; total 250 mg/kg
[3] = Cage 5, IV 50 mg/kg/inj qd 1-5, total 250 mg/kg
[4] = Cage 5, IV 50 mg/kg/inj qd 1-5, total 250 mg/kg, listed as R-enantiomer of compound 22b
[5] = Cage 6, IV 50 mg/kg/inj days 1,3,5,7, total 200 mg/kg
[6] = Cage 7, IV 30 mg/kg/inj days 1,3,5,7, total 120 mg/kg
[7] = Cg 2, IV 80 mg/kg/inj days 6,9,12,15,18,21,24, total 560 mg/kg
[8] = Cg 3, IV 50 mg/kg/inj days 6,9,12,15,18,21,24, total 350 mg/kg
[9] = Cg 4, IV 31 mg/kg/inj days 6,9,12,15,18,21,24, total 217 mg/kg
[10] = Cg 5, total 592.8 mg/kg, text: SC 31.2 mg/kg/inj qd 6-24 (table prints days 6,9..24 IV)
[11] = Cg 12 in table (Cage 6 in text), total 370.5 mg/kg, text: SC 19.5 mg/kg/inj qd 6-24 (table prints IV)

SMILES: C[C@@H](Oc1ccc(Oc2ccc3ccc(Cl)cc3n2)cc1)C(=O)O [Compound R-22b, (R) 2-[4-(7-chloroquinolin-2-yloxy)phenoxy]propanoic acid]
- % T/C mass [1, 3]: 0%
- Activity Rating [1, 3]: +++ (2.0-2.8)
- Drug Deaths [1, 3]: 0/5
- Growth Delay [1, 3]: 7.0 days
- Log Kill [1, 3]: 2.1
- Median Tumor Mass on Day 10 (Range) [1, 3]: 0 mg
- Median time for tumors to 1000 mg (range) [1, 3]: 16.5 (13.5-18) days
- Tumor Free day-155 [1, 3]: 0/5
- % T/C mass [1, 4]: 0%
- Drug Deaths [1, 4]: no deaths
- % T/C mass [1, 5]: 5%
- Activity Rating [1, 5]: ++ (1.3-1.9)
- Drug Deaths [1, 5]: 0/5
- Growth Delay [1, 5]: 5.8 days
- Log Kill [1, 5]: 1.7
- Median Tumor Mass on Day 10 (Range) [1, 5]: 75 mg
- Median time for tumors to 1000 mg (range) [1, 5]: 15.3 (14-17) days
- Tumor Free day-155 [1, 5]: 0/5
- % T/C mass ([1]; Cage 6, IV 50 mg/kg/inj days 1,3,5,7, total 200 mg/kg, listed as R-enantiomer of compound 22b): 5%
- % T/C mass [1, 6]: 32%
- Activity Rating [1, 6]: + (0.7-1.2)
- Drug Deaths [1, 6]: 0/5
- Growth Delay [1, 6]: 2.5 days
- Log Kill [1, 6]: 0.8
- Median Tumor Mass on Day 10 (Range) [1, 6]: 486 mg
- Median time for tumors to 1000 mg (range) [1, 6]: 12 (11.5-14) days
- Tumor Free day-155 [1, 6]: 0/5
- % T/C mass ([1]; Cage 7, IV 30 mg/kg/inj days 1,3,5,7, total 120 mg/kg, listed as R-enantiomer of compound 22b): 32%
- Neuromuscular toxicity ([1]; mouse, in vivo, iv): completely devoid of neuromuscular toxicity
- Behavior post injection ([2]; Cage 2, IV 80 mg/kg/inj, lasted only a few minutes): agitated post IV injection
- Neuromuscular toxicity ([2]; Cage 2, IV 80 mg/kg/inj, total 560 mg/kg): no neuromuscular toxicity
- Behavior post injection ([2]; Cage 5, SC 31.2 mg/kg/inj qd 6-24): not agitated post SC injection
- Behavior post injection ([2]; Cage 6 in text, SC 19.5 mg/kg/inj qd 6-24): not agitated post SC injection
- % Body Wt change between day 6 and day 24 [2, 7]: +3.7%
- % T/C mass [2, 7]: 14.1%
- Activity Rating [2, 7]: +++ (2.0-2.8)
- CR's [2, 7]: 0/7
- Drug Deaths [2, 7]: 0/7
- Growth Delay [2, 7]: 17.5 days
- Log Kill [2, 7]: 2.3
- Median Tumor Mass on Day 24 (Range) [2, 7]: 320 mg
- Median time for tumors to 1,000 mg (range) [2, 7]: 34 days
- PR's [2, 7]: 2/7
- Tumor Free day-157 [2, 7]: 0/7
- % Body Wt change between day 6 and day 24 [2, 8]: +8.8%
- % T/C mass [2, 8]: 29.1%
- Activity Rating [2, 8]: ++ (1.3-1.9)
- CR's [2, 8]: 1/6
- Drug Deaths [2, 8]: 0/6
- Growth Delay [2, 8]: 11.5 days
- Log Kill [2, 8]: 1.5
- Median Tumor Mass on Day 24 (Range) [2, 8]: 658 mg
- Median time for tumors to 1,000 mg (range) [2, 8]: 28 days
- PR's [2, 8]: 1/6
- Tumor Free day-157 [2, 8]: 0/6
- % Body Wt change between day 6 and day 24 [2, 9]: +10.4%
- % T/C mass [2, 9]: 76.2%
- Activity Rating [2, 9]: − (<0.7)
- CR's [2, 9]: 0/6
- Drug Deaths [2, 9]: 0/6
- Growth Delay [2, 9]: 3.5 days
- Log Kill [2, 9]: 0.5
- Median Tumor Mass on Day 24 (Range) [2, 9]: 1722 mg
- Median time for tumors to 1,000 mg (range) [2, 9]: 20 days
- PR's [2, 9]: 0/6
- Tumor Free day-157 [2, 9]: 0/6
- % Body Wt change between day 6 and day 24 [2, 10]: +3.5%
- % T/C mass [2, 10]: 48.9%
- Activity Rating [2, 10]: + (0.7-1.2)
- CR's [2, 10]: 1/5
- Drug Deaths [2, 10]: 0/5
- Growth Delay [2, 10]: 6.5 days
- Log Kill [2, 10]: 0.9
- Median Tumor Mass on Day 24 (Range) [2, 10]: 1105 mg
- Median time for tumors to 1,000 mg (range) [2, 10]: 23 days
- PR's [2, 10]: 1/5
- Tumor Free day-157 [2, 10]: 1/5
- % Body Wt change between day 6 and day 24 [2, 11]: +10.3%
- % T/C mass [2, 11]: 82.7%
- Activity Rating [2, 11]: − (<0.7)
- CR's [2, 11]: 0/5
- Drug Deaths [2, 11]: 0/5
- Growth Delay [2, 11]: 3.0 days
- Log Kill [2, 11]: 0.4
- Median Tumor Mass on Day 24 (Range) [2, 11]: 1868 mg
- Median time for tumors to 1,000 mg (range) [2, 11]: 19.5 days
- PR's [2, 11]: 0/5
- Tumor Free day-157 [2, 11]: 0/5
- % Body Wt change at nadir (colon carcinoma 26): −6.2%
- Activity Rating (colon carcinoma 26): ++ (1.3-1.9)
- CR's (colon carcinoma 26): 1/6
- Drug Deaths (colon carcinoma 26): 0/6
- Growth Delay (colon carcinoma 26): 8 days
- Log Kill (colon carcinoma 26): 1.4
- Median time for tumors to 700 mg (range) (colon carcinoma 26): 21 (15.5-48) days
- PR's (colon carcinoma 26): 1/6
- Tumor Free day-156 (colon carcinoma 26): 0/6
- day of nadir (colon carcinoma 26): 16 days
